Experimental data as given in patent US20110039721A1, “METHOD FOR PREDICTION ABOUT CARCINOGENICITY OF SUBSTANCE IN RODENT” (Chemicals Evaluation and Research Institute, priority 2007, published 2011).

What was measured:
[1] = test system: liver; settings: in vivo; cited from earlier work
[2] = test system: rodent; settings: in vivo; cited from earlier work
[3] = test system: mRNA expressed from the genes (A) to (D) in rat liver; test: Behavior of genes (mRNA expression level, oligo-DNA microarray) in rat liver after 28-day oral administration; format: in vivo
How it was run: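 Oral gavage, once daily × 28 days; male F344 SPF rats, 5 wk, n=4/group; vehicle controls given equal solvent volume. Liver excised day 28, total RNA purified. Significance: ≥1.5× or ≤1/1.5 of vehicle, direction concordant with other carcinogens.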

[4] = gene group (A), Unigene No. Rn.144554
[5] = gene group (A), Unigene No. Rn.167075
[6] = gene group (A), Unigene No. Rn.5834
[7] = gene group (A), Unigene No. Rn.9836
[8] = gene group (B), Unigene No. Rn.1430
[9] = gene group (B), Unigene No. Rn.19329
[10] = gene group (B), Unigene No. Rn.21240
[11] = gene group (C), Unigene No. Rn.106184
[12] = gene group (C), Unigene No. Rn.108075
[13] = gene group (C), Unigene No. Rn.11766
[14] = gene group (C), Unigene No. Rn.118529
[15] = gene group (C), Unigene No. Rn.119024
[16] = gene group (C), Unigene No. Rn.120914
[17] = gene group (C), Unigene No. Rn.123063
[18] = gene group (C), Unigene No. Rn.143213
[19] = gene group (C), Unigene No. Rn.144946
[20] = gene group (C), Unigene No. Rn.14744
[21] = gene group (C), Unigene No. Rn.1647
[22] = gene group (C), Unigene No. Rn.164817
[23] = gene group (C), Unigene No. Rn.167685
[24] = gene group (C), Unigene No. Rn.185941
[25] = gene group (C), Unigene No. Rn.18728
[26] = gene group (C), Unigene No. Rn.201760
[27] = gene group (C), Unigene No. Rn.23969
[28] = gene group (C), Unigene No. Rn.24561
[29] = gene group (C), Unigene No. Rn.43232
[30] = gene group (C), Unigene No. Rn.4620
[31] = gene group (C), Unigene No. Rn.9757
[32] = gene group (C), Unigene No. Rn.9779
[33] = gene group (C), Unigene No. Rn.9862
[34] = gene group (D), Unigene No. Rn.9939

Cl[C@H]1[C@H](Cl)[C@@H](Cl)[C@@H](Cl)[C@H](Cl)[C@H]1Cl [TS057, Lindane]
Liver carcinogenicity [1]: Cr− | Carcinogenicity [2]: C− | Behavior of gene caused by administration of chemical substance, Gene No. 154 ([3]; rat, in vivo): − | Behavior of gene caused by administration of chemical substance, Gene No. 533 ([3]; rat, in vivo): + | Behavior of gene caused by administration of chemical substance, Gene No. 725 ([3]; rat, in vivo): − | Behavior of gene caused by administration of chemical substance, Gene No. 813 ([3]; rat, in vivo): − | Behavior of gene caused by administration of chemical substance, Gene No. 893 ([3]; rat, in vivo): − | Behavior of gene caused by administration of chemical substance, Gene No. 1119 ([3]; rat, in vivo): − | Behavior of gene caused by administration of chemical substance, Gene No. 1131 ([3]; rat, in vivo): + | Behavior of gene caused by administration of chemical substance, Gene No. 1163 ([3]; rat, in vivo): − | Behavior of gene caused by administration of chemical substance, Gene No. 1334 ([3]; rat, in vivo): − | Behavior of gene caused by administration of chemical substance, Gene No. 1494 ([3]; rat, in vivo): − | Behavior of gene caused by administration of chemical substance, Gene No. 1562 ([3]; rat, in vivo): − | Behavior of gene caused by administration of chemical substance, Gene No. 1741 ([3]; rat, in vivo): − | Behavior of gene caused by administration of chemical substance, Gene No. 1993 ([3]; rat, in vivo): − | Behavior of gene caused by administration of chemical substance, Gene No. 2026 ([3]; rat, in vivo): − | Behavior of gene caused by administration of chemical substance, Gene No. 2045 ([3]; rat, in vivo): − | Behavior of gene caused by administration of chemical substance, Gene No. 2203 ([3]; rat, in vivo): − | Behavior of gene caused by administration of chemical substance, Gene No. 2494 ([3]; rat, in vivo): − | Behavior of gene caused by administration of chemical substance, Gene No. 2546 ([3]; rat, in vivo): − | Behavior of gene caused by administration of chemical substance, Gene No. 3776 ([3]; rat, in vivo): − | Behavior of gene caused by administration of chemical substance, Gene No. 3929 ([3]; rat, in vivo): − | Behavior of gene caused by administration of chemical substance, Gene No. 4095 ([3]; rat, in vivo): − | Behavior of gene caused by administration of chemical substance, Gene No. 4218 ([3]; rat, in vivo): − | Behavior of gene caused by administration of chemical substance, Gene No. 4846 ([3]; rat, in vivo): − | Behavior of gene caused by administration of chemical substance, Gene No. 4973 ([3]; rat, in vivo): − | Behavior of gene caused by administration of chemical substance, Gene No. 5600 ([3]; rat, in vivo): − | Behavior of gene caused by administration of chemical substance, Gene No. 5634 ([3]; rat, in vivo): − | Behavior of gene caused by administration of chemical substance, Gene No. 5726 ([3]; rat, in vivo): − | Behavior of gene caused by administration of chemical substance, Gene No. 5878 ([3]; rat, in vivo): − | Behavior of gene caused by administration of chemical substance, Gene No. 6026 ([3]; rat, in vivo): + | Behavior of gene caused by administration of chemical substance, Gene No. 6182 ([3]; rat, in vivo): − | Behavior of gene caused by administration of chemical substance, Gene No. 6303 ([3]; rat, in vivo): + | Behavior of gene caused by administration of chemical substance, Gene No. 6620 ([3]; rat, in vivo): − | Behavior of gene caused by administration of chemical substance, Gene No. 6742 ([3]; rat, in vivo): −

Nc1ccc(N)c(Cl)c1.O=S(=O)(O)O [TS058, 2-Chloro-p-phenylenediamine SO4]
Liver carcinogenicity [1]: Cr− | Carcinogenicity [2]: C− | Behavior of gene caused by administration of chemical substance, Gene No. 4846 [3, 4]: − | Behavior of gene caused by administration of chemical substance, Gene No. 2026 [3, 5]: − | Behavior of gene caused by administration of chemical substance, Gene No. 4218 [3, 5]: − | Behavior of gene caused by administration of chemical substance, Gene No. 6182 [3, 6]: − | Behavior of gene caused by administration of chemical substance, Gene No. 5600 [3, 7]: − | Behavior of gene caused by administration of chemical substance, Gene No. 1494 [3, 8]: − | Behavior of gene caused by administration of chemical substance, Gene No. 2045 [3, 9]: + | Behavior of gene caused by administration of chemical substance, Gene No. 2203 [3, 10]: − | Behavior of gene caused by administration of chemical substance, Gene No. 533 [3, 11]: − | Behavior of gene caused by administration of chemical substance, Gene No. 725 [3, 12]: − | Behavior of gene caused by administration of chemical substance, Gene No. 1163 [3, 13]: + | Behavior of gene caused by administration of chemical substance, Gene No. 4973 [3, 14]: − | Behavior of gene caused by administration of chemical substance, Gene No. 4095 [3, 15]: − | Behavior of gene caused by administration of chemical substance, Gene No. 1334 [3, 16]: − | Behavior of gene caused by administration of chemical substance, Gene No. 6620 [3, 16]: − | Behavior of gene caused by administration of chemical substance, Gene No. 6303 [3, 17]: − | Behavior of gene caused by administration of chemical substance, Gene No. 5878 [3, 18]: − | Behavior of gene caused by administration of chemical substance, Gene No. 1131 [3, 19]: − | Behavior of gene caused by administration of chemical substance, Gene No. 1562 [3, 20]: − | Behavior of gene caused by administration of chemical substance, Gene No. 1741 [3, 21]: − | Behavior of gene caused by administration of chemical substance, Gene No. 893 [3, 22]: − | Behavior of gene caused by administration of chemical substance, Gene No. 6026 [3, 23]: − | Behavior of gene caused by administration of chemical substance, Gene No. 154 [3, 24]: + | Behavior of gene caused by administration of chemical substance, Gene No. 1993 [3, 25]: − | Behavior of gene caused by administration of chemical substance, Gene No. 813 [3, 26]: − | Behavior of gene caused by administration of chemical substance, Gene No. 2494 [3, 27]: + | Behavior of gene caused by administration of chemical substance, Gene No. 2546 [3, 28]: + | Behavior of gene caused by administration of chemical substance, Gene No. 3776 [3, 29]: − | Behavior of gene caused by administration of chemical substance, Gene No. 3929 [3, 30]: − | Behavior of gene caused by administration of chemical substance, Gene No. 1119 [3, 31]: + | Behavior of gene caused by administration of chemical substance, Gene No. 6742 [3, 32]: − | Behavior of gene caused by administration of chemical substance, Gene No. 5634 [3, 33]: + | Behavior of gene caused by administration of chemical substance, Gene No. 5726 [3, 34]: −

Cc1cc(N)ccc1N.O=S(=O)(O)O [TS060, 2,5-Toluenediamine SO4]
Liver carcinogenicity [1]: Cr− | Carcinogenicity [2]: C− | Behavior of gene caused by administration of chemical substance, Gene No. 4846 [3, 4]: − | Behavior of gene caused by administration of chemical substance, Gene No. 2026 [3, 5]: − | Behavior of gene caused by administration of chemical substance, Gene No. 4218 [3, 5]: − | Behavior of gene caused by administration of chemical substance, Gene No. 6182 [3, 6]: − | Behavior of gene caused by administration of chemical substance, Gene No. 5600 [3, 7]: − | Behavior of gene caused by administration of chemical substance, Gene No. 1494 [3, 8]: − | Behavior of gene caused by administration of chemical substance, Gene No. 2045 [3, 9]: − | Behavior of gene caused by administration of chemical substance, Gene No. 2203 [3, 10]: − | Behavior of gene caused by administration of chemical substance, Gene No. 533 [3, 11]: − | Behavior of gene caused by administration of chemical substance, Gene No. 725 [3, 12]: − | Behavior of gene caused by administration of chemical substance, Gene No. 1163 [3, 13]: + | Behavior of gene caused by administration of chemical substance, Gene No. 4973 [3, 14]: − | Behavior of gene caused by administration of chemical substance, Gene No. 4095 [3, 15]: − | Behavior of gene caused by administration of chemical substance, Gene No. 1334 [3, 16]: − | Behavior of gene caused by administration of chemical substance, Gene No. 6620 [3, 16]: − | Behavior of gene caused by administration of chemical substance, Gene No. 6303 [3, 17]: − | Behavior of gene caused by administration of chemical substance, Gene No. 5878 [3, 18]: − | Behavior of gene caused by administration of chemical substance, Gene No. 1131 [3, 19]: + | Behavior of gene caused by administration of chemical substance, Gene No. 1562 [3, 20]: − | Behavior of gene caused by administration of chemical substance, Gene No. 1741 [3, 21]: − | Behavior of gene caused by administration of chemical substance, Gene No. 893 [3, 22]: + | Behavior of gene caused by administration of chemical substance, Gene No. 6026 [3, 23]: − | Behavior of gene caused by administration of chemical substance, Gene No. 154 [3, 24]: − | Behavior of gene caused by administration of chemical substance, Gene No. 1993 [3, 25]: − | Behavior of gene caused by administration of chemical substance, Gene No. 813 [3, 26]: − | Behavior of gene caused by administration of chemical substance, Gene No. 2494 [3, 27]: − | Behavior of gene caused by administration of chemical substance, Gene No. 2546 [3, 28]: − | Behavior of gene caused by administration of chemical substance, Gene No. 3776 [3, 29]: − | Behavior of gene caused by administration of chemical substance, Gene No. 3929 [3, 30]: + | Behavior of gene caused by administration of chemical substance, Gene No. 1119 [3, 31]: − | Behavior of gene caused by administration of chemical substance, Gene No. 6742 [3, 32]: − | Behavior of gene caused by administration of chemical substance, Gene No. 5634 [3, 33]: + | Behavior of gene caused by administration of chemical substance, Gene No. 5726 [3, 34]: −
